Assay results from patent US6656509B1, “Combination of selenium-containing compounds with cytostatics” (Biosyn Arzneimittel GmbH, priority 1998, dated 2003).

Tests used:
[1] = tested on: pancreatic cancer xenograft PAXF 546; assay: clonogenic assay, single agents and combination studies; format: cell-based, human; settings: observed; X261, X295
Procedure: (§1) The cell mixture was passed through sieves of 200 μm and 50 μm mesh size and washed thereafter twice with PBS. The percentage of viable cells was determined in a Neubauer counting chamber using trypan blue exclusion.
(§2) 8×10^3 to 1,6×10^4 cells were added to 0.2 ml of the same culture medium together with 0.4% agar and placed in already coated 24-multiwell dishes. Test substances were applied by continuous exposure (drug overlay) in 0.2 ml medium. Every dish included six control wells containing the vehicle- and drug-treated groups in triplicate at six concentrations.
(§3) Cultures were incubated at 37° and 7% CO2 in a humidified atmosphere for 5 to 15 days (depending on the doubling time of the tumor stem cells) and monitored for colony growth using an inverted microscope. Within this period, in vitro tumor growth led to the formation of colonies with a diameter of ≧50 μm. At the time of maximum colony formation counts were performed with an automatic image analysis system (OMNICOM Fas IV, Biosys GmbH). […] Drug effects were expressed in terms of the percentage of surviving cells, obtained by comparison of the mean number of colonies in the treated plates with the mean colony count of the untreated controls (test-versus-control-group value, T/C=colony countTreated Group*100/colony countControl Group).
(§4) Coefficient of variation in the control group ≦50%. IC50 and IC70 values were determined by plotting compound concentration versus cell survival rate. Mean IC50 and IC70 values were calculated according to the formula: [formula]
(§5) with x=specific tumor xenograft and n=total number of tumor xenografts studied. If an IC50 or IC70 value could not be determined within the examined dose range, the lowest or highest concentration studied was used for the calculation.
(§6) Each experiment included the chemotherapeutic agents in 6 concentrations, selenium in 2 concentrations (3 and 30 μM), and the combination of all doses with selenium at 3 and 30 μM. All compounds and combinations were studied in triplicates. […] Each experiment was performed twice.
(§7) T/Cexpectd(A+B)=T/C(A)×T/C(B)/100
(§8) For a zero-interactive drug combination (additivity of drug effects) T/Cexpected(A+B)[…]T/Cobserved(A+B). A drug combination is synergistic if T/Cobserved(A+B) is statistically significant[…]T/Cexpected(A+B). Statistical significance was determined by the T-test.

[2] = tested on: pancreatic cancer xenograft PAXF 736; assay: as above; format: cell-based, human; settings: (X261, X295)
Procedure: as §1, §2, §3, §4, §5, §6, §7, §8

Compound: Nc1ccn([C@@H]2O[C@H](CO)[C@@H](O)C2(F)F)c(=O)n1 [Gemcitabine]
- T/C in % at a gemcitabine concentration (μM) [1]: 85 ± 15%
- T/C in % at a gemcitabine concentration (μM) of 1.0 [1]: 30 ± 6%
- T/C in % at a gemcitabine concentration (μM) of 1 × 10^−1 [1]: 48 ± 8%
- T/C in % at a gemcitabine concentration (μM) of 1 × 10^−2 [1]: 61± 11%
- T/C in % at a gemcitabine concentration (μM) of 1 × 10^−3 [1]: 83 ± 12%
- T/C in % at a gemcitabine concentration (μM) of 1 × 10^−4 [1]: 80 ± 12%
- T/C in % at a gemcitabine concentration (μM) of 1 × 10^−5 [1]: 73 ± 20%
- T/C in % at a gemcitabine concentration (μM) of 1 × 10^−1 ([2]; gemcitabine alone): 30 ± 8%
- T/C in % at a gemcitabine concentration (μM) of 1 × 10^−2 ([2]; gemcitabine alone): 71± 10%
- T/C in % at a gemcitabine concentration (μM) of 1 × 10^−3 ([2]; gemcitabine alone): 77 ± 13%
- T/C in % at a gemcitabine concentration (μM) of 1 × 10^−4 ([2]; gemcitabine alone): 84 ± 12%
- T/C in % at a gemcitabine concentration (μM) of 1 × 10^−5 ([2]; gemcitabine alone): 78 ± 14%
- T/C in % at a gemcitabine concentration (μM) of 1 × 10^−6 ([2]; gemcitabine alone): 89 ± 11%

Compound: CO[C@@]12[C@H](COC(N)=O)C3=C(C(=O)C(C)=C(N)C3=O)N1C[C@@H]1N[C@@H]12 [Mitomycin C]
- T/C in % at a mitomycin C concentration (μM) [1]: 87 ± 11%
- T/C in % at a mitomycin C concentration (μM) of 1.0 [1]: 5 ± 2%
- T/C in % at a mitomycin C concentration (μM) of 1 × 10^−1 [1]: 57 ± 8%
- T/C in % at a mitomycin C concentration (μM) of 1 × 10^−2 [1]: 80± 12%
- T/C in % at a mitomycin C concentration (μM) of 1 × 10^−3 [1]: 70 ± 13%
- T/C in % at a mitomycin C concentration (μM) of 1 × 10^−4 [1]: 70 ± 10%
- T/C in % at a mitomycin C concentration (μM) of 1 × 10^−5 [1]: 84 ± 14%
- T/C in % at a mitomycin C concentration (μM) of 1 × 10^−1 ([2]; mitomycin C alone): 11 ± 7%
- T/C in % at a mitomycin C concentration (μM) of 1 × 10^−2 ([2]; mitomycin C alone): 30± 7%
- T/C in % at a mitomycin C concentration (μM) of 1 × 10^−3 ([2]; mitomycin C alone): 46 ± 8%
- T/C in % at a mitomycin C concentration (μM) of 1 × 10^−4 ([2]; mitomycin C alone): 56 ± 11%
- T/C in % at a mitomycin C concentration (μM) of 1 × 10^−5 ([2]; mitomycin C alone): 58 ± 10%
- T/C in % at a mitomycin C concentration (μM) of 1 × 10^−6 ([2]; mitomycin C alone): 77 ± 13%
